Measured values: US4118424A, “Biodegradable insecticides” (priority 1976, dated 1978)
In brackets after ≈: the same amount, converted by molar mass.

Experiments:
[1] = tested on: houseflies, susceptible strain (SNAIDM); experiment: Insecticidal activity, housefly, susceptible strain (SNAIDM), Table I; assay type: in vivo; settings: for SNAIDM alone (insecticidal activity; head is a drawing): compound alone; for SNAIDM with P.B. (insecticidal activity; head is a drawing): with piperonyl butoxide synergist
Text: (§1) Metabolic studies involving insects, mice, and fish and a model ecosystem (such as described in U.S. Pat. No. 3,787,505) and insecticidal activity studies generally involving flies and mosquitoes have shown that both the symmetrical and the asymmetrical compounds of the present invention are effective. Thus, the new compounds can be represented by the general formula: [drawing 3] where R1 is H or Cl and R2 is CH3 or Cl, X and X^1 are the same or different and each is selected from the group consisting of C1 to C3 alkyl groups and C1 to C4 alkoxy groups.
(§2) In addition, DCP was tested for mouse toxicity, fish toxicity and biodegradibility.

[2] = tested on: houseflies, DDT resistant strain (RSP); experiment: Insecticidal activity, housefly, resistant strain (RSP), Table I; assay type: in vivo; settings: for RSP alone (insecticidal activity; head is a drawing): compound alone; for RSP with P.B. (insecticidal activity; head is a drawing): with piperonyl butoxide synergist
Text: as §1, §2

[3] = tested on: mice; experiment: Mouse toxicity, oral, Table I; assay type: in vivo; settings: for mouse toxicity (head is a drawing): oral administration
Description: as §2

[4] = tested on: fish; experiment: Fish toxicity, Table I; assay type: in vivo
Description: as §2

[5] = Biodegradability studies, general statement
Text: as §1, §2

[6] = tested on: Musca domestica (NAIDM strain); experiment: Insect toxicity, Musca domestica NAIDM strain; assay type: in vivo; settings: for LD50: Musca domestica, without PB; for Musca domestica NAIDM (w/PB) LD50: with PB
[7] = tested on: Musca domestica Rsp strain; experiment: Insect toxicity, Musca domestica Rsp strain, DDT-resistant; assay type: in vivo; settings: for LD50: Musca domestica, without PB; for Musca domestica Rsp strain w/PB LD50: with PB
[8] = tested on: Culex fatigans larvae; experiment: Insect toxicity, Culex fatigans larvae; assay type: in vivo; settings: Culex quinquefasciatus
[9] = tested on: Culex fatigans adults; experiment: Insect toxicity, Culex fatigans adults; assay type: in vivo
[10] = tested on: Anopheles albimanus larvae; experiment: Insect toxicity, Anopheles albimanus larvae; assay type: in vivo
[11] = tested on: Anopheles albimanus adults; experiment: Insect toxicity, Anopheles albimanus adults; assay type: in vivo
[12] = tested on: Phormia regina; experiment: Insect toxicity, Phormia regina; assay type: in vivo
[13] = tested on: Anopheles albimanus; experiment: Persistence on plywood surfaces of test huts, Anopheles albimanus; assay type: in vivo; settings: adult mosquitoes
Description: (§3) The persistence of some of the compounds of the present invention was evaluated and compared with that of ethoxychlor. In these tests, the compounds were applied to the plywood surfaces of test huts and the mortalities of adult mosquitoes contained in the huts were measured to determine the number of weeks that 50% mortality continued to occur.

[14] = tested on: Culex fatigans; experiment: Persistence on plywood surfaces of test huts, Culex fatigans; assay type: in vivo; settings: adult mosquitoes
Description: as §3

[15] = tested on: green sunfish (Lepomis cyanellus); experiment: Green sunfish toxicity over a period of time; assay type: in vivo; settings: initial concentration 0.1 ppm
Text: The compounds of Example III, V, XI, XIV and XXI were further tested and compared with ethoxychlor to determine fish toxicities over a period of time. In these tests, green sunfish (Lepomis cyanellus) were subject to an initial concentration dosage of 0.1 ppm and the number of days that 100 percent mortalities occurred was observed.

[16] = Mouse toxicity, LD50; assay type: in vivo, mice; settings: in vivo
[17] = tested on: mice; experiment: Mouse toxicity, LD50; assay type: in vivo; settings: versus ethoxychlor
[18] = tested on: insects (flies and mosquitoes); experiment: Insecticidal activity, general statement; assay type: in vivo; settings: versus ethoxychlor
Text: as §1

SMILES	SNAIDM alone (insecticidal activity; head is a drawing) [1]	SNAIDM with P.B. (insecticidal activity; head is a drawing) [1]	RSP alone (insecticidal activity; head is a drawing) ([2]; resistant strain)	RSP with P.B. (insecticidal activity; head is a drawing) ([2]; resistant strain)	fish toxicity (head is a drawing) [4]	LD50 [6]	Musca domestica NAIDM (w/PB) LD50 [6]	LD50 [7]	Musca domestica Rsp strain w/PB LD50 [7]	LC50 [8]	Culex fatigans adults-LC50 [9]	LC50 [10]	Anopheles albimanus adults LC50 [11]	LD50 [12]	Anopheles albimanus, P50 (number of weeks that at least 50% mortality occurred) [13]	Culex fatigans, P50 (number of weeks that at least 50% mortality occurred) [14]	Number of days 100% mortality [15]	LD50 [16]	safety to mice relative to ethoxychlor [17]	insecticidal activity relative to ethoxychlor [18]	other results
COc1ccc(C(c2ccc(OC)cc2)C(C)Cl)cc1 (stereo not drawn) [DCP, 1,1-bis(p-methoxyphenyl)-2-chloropropane]	935	3.5	> 500	4.1	> 3																toxicity to susceptible strain of houseflies, alone (in words) ([1]; alone): not as toxic as DDT or methoxychlor; toxicity to susceptible strain of houseflies with piperonyl butoxide (in words) ([1]; with P.B.): at least as toxic as methoxychlor and considerably more toxic than DDT; toxicity to DDT resistant strain of houseflies, alone (in words) ([2]; DDT resistant strain, alone): not as toxic as DDT or methoxychlor; toxicity to resistant strain of houseflies with piperonyl butoxide (in words) ([2]; resistant strain, with P.B.): at least as toxic as methoxychlor and considerably more toxic than DDT; mouse toxicity (head is a drawing) [3]: > 1000; mouse toxicity (in words) ([3]; oral administrations to mice): considerably less toxic than DDT and comparable to methoxychlor; fish toxicity (in words) [4]: less toxic than either DDT or methoxychlor; biodegradability (in words) [5]: more biodegradable than methoxychlor
Clc1ccc(C(c2ccc(Cl)cc2)C(Cl)(Cl)Cl)cc1 [DDT, 1,1,1-trichloro-2,2-bis(p-chlorophenyl) ethane, reference compound]	14.0	5.5	270	70	0.30																mouse toxicity (head is a drawing) [3]: 200
CCOc1ccc(C(c2ccc(C)cc2)C(C)Cl)cc1 (stereo not drawn) [Example III]						39 mg/kg	10 µg/g	95 mg/kg	14 µg/g	0.08 µg/mL (≈ 0.277 µM)	10 ug/cm^2	0.09 µg/mL (≈ 0.312 µM)	1.1 ug/cm^2	6.75 mg/kg	> 6 weeks	> 8 weeks	0 days	≥ 1000 mg/kg	at least five times safer to mice than is ethoxychlor	at least generally comparable to ethoxychlor	
CCOc1ccc(C(c2ccc(OCC)cc2)C(C)C)cc1 [Example XI]						21.5 mg/kg	3.5 µg/g	38 mg/kg	12.5 µg/g	0.08 µg/mL (≈ 0.268 µM)	14.3 ug/cm^2	0.028 µg/mL (≈ 0.0938 µM)	4.5 ug/cm^2	14.5 mg/kg	> 44 weeks	40 weeks	> 35 days	≥ 1000 mg/kg	at least five times safer to mice than is ethoxychlor	at least generally comparable to ethoxychlor	
COc1ccc(C(c2ccc(OC)cc2)C(Cl)(Cl)Cl)cc1 [Methoxychlor, reference compound]	45.0	3.5	48	4.6	1																
CCOc1ccc(C(c2ccc(OCC)cc2)C(C)Cl)cc1 (stereo not drawn) [V]						9.5 mg/kg	2 µg/g	18 mg/kg	4.9 µg/g	0.054 µg/mL (≈ 0.169 µM)	56 ug/cm^2	0.047 µg/mL (≈ 0.147 µM)	7.9 ug/cm^2	4.62 mg/kg	> 80 weeks	> 70 weeks	4 days	≥ 1000 mg/kg	at least five times safer to mice than is ethoxychlor	at least generally comparable to ethoxychlor	
CCOc1ccc(C(c2ccc(C)cc2)C(C)C)cc1 (stereo not drawn) [XIV]						70 mg/kg	18 µg/g	150 mg/kg	31 µg/g	0.052 µg/mL (≈ 0.194 µM)	5.0 ug/cm^2	0.275 µg/mL (≈ 1.02 µM)	5 ug/cm^2	35 mg/kg	6 weeks	4 weeks	0 days	≥ 1000 mg/kg	at least five times safer to mice than is ethoxychlor	at least generally comparable to ethoxychlor	
